How the values were obtained:
[1] = tested on: isolated postnatal microglial cell cultures; assay: Cytokine gene expression in microglial cell cultures treated with synthetic Aβ1-42; type: cell-based; conditions: 22.5 μg/ml
Description: Treatment of isolated postnatal microglial cell cultures with synthetic Aβ1-42 peptides (22.5 μg/ml) induced an almost 6-fold upregulation of IL-12/IL-23p40 after 24 h when compared to unstimulated controls (FIG. 1c).
Since both in human AD samples as well as in transgenic AD mice, microglia and macrophages surrounding Aβ-plaques are reported to be a major source of inflammatory cytokines, we FACS sorted myeloid brain cells of Alzheimer mice in order to better characterize this inflammatory component. Initially, we assessed the expression of IL-12, IL-23 and TNFα in 4-month-old APPPS1 animals and age matched non-transgenic littermates by quantitative PCR of the two cellular fractions obtained (CD45^+ CD11b^+ and CD45^− CD11b^−). […] In contrast, we observed a robust upregulation of IL-12/IL-23p40 and IL-23p19 in the double positive fraction containing microglia and brain macrophages of APPPS1 mice compared to age-matched littermate controls (FIG. 1b). […] To validate a potential link between IL-12 and IL-23 subunits and Aβ-pathology in APPPS1 transgenic animals—besides their impact in models of CNS autoimmune disease, IL-12/IL-23 have not been described to play a role in neurodegenerative diseases so far—as well as to test, whether inhibition of IL-12 and IL-23 subunits could alter disease progression in AD mice, genetic and applied experiments targeting IL-12 and IL-23 subunits in AD mice were performed.

[2] = tested on: IL-12/p40; conditions: cited from earlier work
[3] = tested on: IL-6, IL-1β IL-23 and TNF-a; conditions: cited from earlier work

Aβ1-42 peptides: synthetic Aβ1-42 peptides used to stimulate microglial cell cultures
upregulation of IL-23p19 [1]: substantial upregulation
upregulation of TNFα [1]: substantial upregulation
upregulation of IL-12/IL-23p40 over unstimulated controls ([1]; 24 h): ~6 fold

CC[C@@H](O)/C=C/C=C\C[C@@H](O)/C=C/C=C/C=C\[C@@H](O)CCCC(=O)O [Resolvin E1, (5S, 12R, 18R)-5, 12, 18-trihydroxyicosa-6,8, 10, 14, 16-pentaenoic acid]
proinflammatory gene expression, i. a. IL-12/p40 [2]: dramatically decreases

CC/C=C\C[C@H](O)C(O)/C=C/C=C/C=C\C=C\[C@@H](O)C/C=C\CCC(=O)O (stereo partly drawn) [Resolvin D2, (7S, 17S)-7, 16, 17-trihydroxydocosa-4,8, 10, 12, 14, 19-hexaenoic acid]
levels of proinflammatory cytokines, namely IL-6, IL-1β IL-23 and TNF-a [3]: drastically reduces

Reference: US20160207994A1, “MODULATORS OF IL-12 AND/OR IL-23 FOR THE PREVENTION OR TREATMENT OF ALZHEIMER'S DISEASE” (UNIVERSITAT ZURICH, priority 2011, published 2016)
